From US5238938A, “Indole derivatives” (Otsuka Pharmaceutical Co., Ltd., priority 1989, dated 1993)
Converted amounts (≈) assume the structure as drawn.

The molecules below were run on superoxide radicals (O2^-) released from the peritoneal macrophage cells of guinea pig (assay: Inhibitory effect against superoxide radicals (O2^-) released from the peritoneal macrophage cells of guinea pig by stimulation). Conditions: Cavia porcellus, Peritoneal macrophage cell; guinea pig peritoneal macrophages 2×10^6 cells/ml; FMLP 10^-7 M; cytochrome C reduction, OD550; 37° C.; read-out: 50% inhibitory concentration (IC50), superoxide radical release.
Format: cell-based
Experimental: Inhibitory effect against superoxide radicals (O2^-) released from the peritoneal macrophage cells of guinea pig by stimulation
Mineral oil (15 ml) was intraperitoneally administered to a guinea pig, then 96 hours after the administration, the peritoneal macrophage cells were samples.
Superoxide redicals (O2^-) were determined by means of reduction of cytochrome C method according to the procedure described in an article by T. Matsumoto, K. Takeshige and S. Minakami: Biochemical and Biophysical Research Communications, Vol. 88, No. 3, pp. 974-979, (1979).
The peritoneal macrophage cells were added to make the final concentration of 2×10^6 cells/ml into 1 ml of 80 μM-cytochome C solution, and the test compound of indole derivative of the present invention was added thereto to make the test group sample. On the other hand, water was added in place of the indole derivative of the present invention to make the control group sample. Each of the test group sample and the control group sample was subjected to pure incubaiton at 37° C. for 1 minute.
As to the stimulating agent for releasing superoxide radicals (O2^-), FMLP (formylmethionyl leucyl phenylalanine) was added to make the final concentration thereof to 10^-7 M, to each of the test group sample and the control group sample. Then both samples were subjected to additional reaction by incubation for 1 minute.
Difference of the optical absorbances measured at 550 nm (OD550) of both test group and control group samples were determined, and the 50% inhibitory concentration (IC50) was obtained by calculating as the ratio of OD550 of the test group sample to that of the control group sample.
Molecule COc1nc(CC(C)C)c(=O)[nH]c1Cc1c[nH]c2ccccc12 [Compound A-16] has an IC50 of 50 µg/mL (≈ 161 µM). COC1=N[C@@H](CC(C)C)C(=O)N/C1=C\c1c[nH]c2ccccc12 [Compound A-17, (3S,Z)-6-(Indol-3-yl)methylidene-3-isobutyl-5-methoxy-1,2,3,6-tetrahydropyrazin-2-one] gave an IC50 of 15 µg/mL (≈ 48.2 µM). Molecule CC(C)C[C@H]1C(=O)N[C@@H](Cc2c[nH]c3ccccc23)C(=O)N1O [Compound A-29a, (3S,6S)-1-Hydroxy-3-(indol-3-yl)methyl-6-isobutylpiperazine-2,5-dione] has an IC50 of 50 µg/mL (≈ 159 µM). CC(C)C[C@@H]1C(=O)N[C@@H](Cc2c[nH]c3ccccc23)C(=O)N1O [Compound A-30a, (3S,6R)-1-Hydroxy-3-(indol-3-yl)methyl-6-isobutylpiperazine-2,5-dione] gave an IC50 of 10 µg/mL (≈ 31.7 µM). CC(C)Cc1c(Cl)nc(Cc2c[nH]c3ccccc23)c(=O)n1O [Compound A-38, 5-chloro-1-hydroxy-3-(indol-3-yl)methyl-6-isobutyl-1,2-dihydropyrazin-2-one] gave an IC50 of 6 µg/mL (≈ 18.1 µM). Work on COc1c(Cc2c[nH]c3ccccc23)nc(Cl)c(CC(C)C)[n+]1[O-] [Compound A-46, 3-chloro-5-(indol-3-yl)methyl-2-isobutyl-6-methoxypyrazine-1-oxide] yielded an IC50 of 30 µg/mL (≈ 86.7 µM). Work on COC(=O)n1cc(Cc2nc(Cl)c(CC(C)C)n(OC)c2=O)c2ccccc21 [Compound A-47, 5-Chloro-6-isobutyl-3-[(1-methoxycarbonyl)indol-3-yl]methyl-1-methoxy-12,-dihydropyrazin-2-one] yielded an IC50 of 25 µg/mL (≈ 61.9 µM). With CC(C)Cc1c(=O)[nH]c(Cc2c[nH]c3ccccc23)c(N)[n+]1[O-] [Compound A-62, 5-amino-6-(indol-3-yl)methyl-3-isobutyl-1,2-dihydropyrazin-2-one 4-oxide] the IC50 was 12 µg/mL (≈ 38.4 µM). Molecule CC(=O)Nc1c(Cc2c[nH]c3ccccc23)[nH]c(=O)c(CC(C)C)[n+]1[O-] [Compound A-63, 5-acetamino-6-(indol-3-yl)methyl-3-isobutyl1,2-dihydropyrazin-2-one 4-oxide] has an IC50 of 30 µg/mL (≈ 84.6 µM). Work on CCc1c(Cc2c[nH]c3ccccc23)[nH]c(=O)c(CC(C)C)[n+]1[O-] [Compound A-82b, 5-Ethyl-6-(indol-3-yl)methyl-3-isobutyl-1,2-dihydropyrazin-2-one 4-oxide] yielded an IC50 of 12 µg/mL (≈ 36.9 µM). In the case of COc1c(Cc2c[nH]c3ccccc23)[nH]c(=O)c(Cc2ccccc2)[n+]1[O-] [Compound E-6d, 3-Benzyl-6-(indol-3-yl)methyl-5-methoxy-1,2-dihydropyrazin-2-one 4-oxide], the IC50 was 5 µg/mL (≈ 13.8 µM). Work on COc1c(Cc2c[nH]c3ccccc23)[nH]c(=O)c(CC2CCCCC2)[n+]1[O-] [Compound E-6f, 3-Cyclohexylmethyl-6-(indol-3-yl)methyl-5-methoxy-1,2-dihydropyrazin-2-one 4-oxide] yielded an IC50 of 4 µg/mL (≈ 10.9 µM). Molecule COc1c(Cc2c[nH]c3ccccc23)[nH]c(=O)c(Cc2c[nH]c3ccccc23)[n+]1[O-] [Compound E-6g, 3,6-Di(indol-3-yl)methyl-5-methoxy-1,2-dihydropyrazin-2-one 4-oxide] has an IC50 of 1.5 µg/mL (≈ 3.75 µM). Molecule CCOc1c(Cc2c[nH]c3ccccc23)[nH]c(=O)c(CC(C)C)[n+]1[O-] [Compound E-12, 5-Ethoxy-6-(indol-3-yl)methyl-3-isobutyl-1,2-dihydropyrazin-2-one 4-oxide] has an IC50 of 8 µg/mL (≈ 23.4 µM). In the case of CC(C)Cc1c(=O)[nH]c(-c2c[nH]c3ccccc23)c(Cl)[n+]1[O-] [Compound E-30, 5-Chloro-6-(indol-3-yl)-3-isobutyl-1,2-dihydropyrazin-2-one 4-oxide], the IC50 was 8 µg/mL (≈ 25.2 µM). Work on COc1c(Cc2c[nH]c3ccc(F)cc23)[nH]c(=O)c(CC(C)C)[n+]1[O-] [Compound E-34a, 6-[(5-Fluoro)indol-3-yl]methyl-3-isobutyl-5-methoxy-1,2-dihydropyrazin-2-one 4-oxide] yielded an IC50 of 10 µg/mL (≈ 29 µM). For COc1c(Cc2c[nH]c3ccc(Br)cc23)[nH]c(=O)c(CC(C)C)[n+]1[O-] [Compound E-34c, 6-[(5-Bromo)indol-3-yl]methyl-3-isobutyl-5-methoxy-1,2-dihydropyrazin-2-one 4-oxide], the IC50 was 5 µg/mL (≈ 12.3 µM). For COc1c(Cc2c[nH]c3c(C)cccc23)[nH]c(=O)c(CC(C)C)[n+]1[O-] [Compound E-34f, 3-Isobutyl-5-methoxy-6-[(7-methyl)indol-3-yl]methyl-1,2-dihydropyrazin-2-one 4-oxide], the IC50 was 7 µg/mL (≈ 20.5 µM). For COc1ccc2[nH]cc(Cc3[nH]c(=O)c(CC(C)C)[n+]([O-])c3OC)c2c1 [Compound E-34h, 3-Isobutyl-5-methoxy-6-[(5-methoxy)indol-3-yl]methyl-1,2-dihydropyrazin-2-one 4-oxide], the IC50 was 5 µg/mL (≈ 14 µM). COc1c(Cc2c[nH]c3ccc(O)cc23)[nH]c(=O)c(CC(C)C)[n+]1[O-] [Compound E-34j, 6-[(5-Hydroxy)indol-3-yl]methyl-3-isobutyl-5-methoxy-1,2-dihydropyrazin-2-one 4-oxide] gave an IC50 of 10 µg/mL (≈ 29.1 µM). COc1ccc2[nH]c(C)c(Cc3[nH]c(=O)c(CC(C)C)[n+]([O-])c3OC)c2c1 [Compound E-34k, 3-Isobutyl-5-methoxy-6-[(5-methoxy-2-methyl)indol-3-yl]methyl-1,2-dihydropyrazin-2-one 4-oxide] showed an IC50 of 2 µg/mL (≈ 5.38 µM). COc1c(Cn2ccc3ccccc32)[nH]c(=O)c(CC(C)C)[n+]1[O-] [Compound E-36p, 6-(Indol-1-yl)methyl-3-isobutyl-5-methoxy-1,2-dihydropyrazin-2-one 4-oxide] gave an IC50 of 8 µg/mL (≈ 24.4 µM). In the case of CC(C)Cc1c(=O)[nH]c(Cc2c[nH]c3ccccc23)c(OC(C)C)[n+]1[O-] [Compound E-46a, 6-(Indol-3-yl)methyl-3-isobutyl-5-isopropoxy-1,2-dihydroipyrazin-2-one 4-oxide], the IC50 was 3 µg/mL (≈ 8.44 µM). With CC(C)Cc1c(=O)[nH]c(Cc2c[nH]c3ccccc23)c(Cl)[n+]1[O-] [Compound E-57a, 5-Chloro-6-(indol-3-yl)methyl-3-isobutyl-1,2-dihydropyrazin-2-one 4-oxide] the IC50 was 10 µg/mL (≈ 30.1 µM). CSc1c(Cc2c[nH]c3ccccc23)[nH]c(=O)c(CC(C)C)[n+]1[O-] [Compound E-57c, 6-(Indol-3-yl)methyl-3-isobutyl-5-methylthio-1,2-dihydropyrazin-2-one 4-oxide] was tested, and the IC50 was 10 µg/mL (≈ 29.1 µM). Work on CC(C)Cc1c(=O)[nH]c(Cc2c[nH]c3ccccc23)c(S(C)(=O)=O)[n+]1[O-] [Compound E-57d, 6-(Indol-3-yl)methyl-3-isobutyl-5-methylsulfonyl-1,2-dihydropyrazin-2-one 4-oxide] yielded an IC50 of 10 µg/mL (≈ 26.6 µM). CC(C)Cc1c(=O)[nH]c(Cc2c[nH]c3ccccc23)c([S+](C)[O-])[n+]1[O-] (stereo not shown) [Compound E-58, 6-(Indol-3-yl)methyl-3-isobutyl-5-methylsulfinyl-1,2-dihydropyrazin-2-one 4-oxide] gave an IC50 of 6 µg/mL (≈ 16.7 µM). Work on COc1c(Cc2cn(C)c3ccccc23)nc(OCc2ccccc2)c(CC(C)C)[n+]1[O-] [Compound E-67a, 3-Benzyloxy-2-isobutyl-5-[(1-methyl)indol-3-yl]methyl-6-methoxypyrazine 1-oxide] yielded an IC50 of 10 µg/mL (≈ 23.2 µM). CC(C)C[C@@H]1C(=O)N(C)[C@@H](Cc2c[nH]c3ccccc23)C(=O)N1O [Compound E-72a, (3S,6R)-1-Hydroxy-3-(indol-3-yl)methyl-6-isobutyl-4-methylpiperazine-2,5-dione] gave an IC50 of 0.8 µg/mL (≈ 2.43 µM). CC(C)C[C@@H]1C(=O)N(C)[C@@H](Cc2cn(C)c3ccccc23)C(=O)N1O [Compound E-73a, (3S,6R)-1-Hydroxy-6-isobutyl-4-methyl-3-[(1-methyl)indol-3-yl]methylpiperazine-2,5-dione] gave an IC50 of 2 µg/mL (≈ 5.82 µM).

What follows are molecules tested on releasing of lysosome from the neutrocytes of rat (assay: Inhibitory effect against the releasing of lysosome from the neutrocytes of rat). Conditions: rat neutrocytes 5×10^5 cells/ml; FMLP 10^-6 M + cytochalasin B 5 μg/ml; 15 minutes; OD550.
Format: cell-based
Experimental: Inhibitory effect against the releasing of lysosome from the neutrocytes of rat
The neutrocytes of rat were samples from the abdominal cavity of the reat 16 hours after the administration of 10 ml of 1%-casein solution (physiological saline solution).
Reaction of the releasing of lysosome from the neutrocytes of rat was determined by means of the method described in an article by T. Matsumoto, K. Takeshige and S. Minakami: Biochemical and Biophysical Research Communications, Vol. 88, No. 3, pp. 974-979, (1979).
The neutrocytes being sampled were added to Hank's soluiton so as to make the concentraiton thereof as 5×10^5 cells/ml, and the test compound of indole derivative of the present invention was added thereto to make the test group sample. On the other hand, water was added in place of the indole derivative of the present invention to make the control group sample. Each of the test group sample and the control group sample was subjected to pre-incubation at 37° C. for 1 minute.
As to the stimulating agents, 10^-6 M of FMLP (formylmethionyl leucyl phenylalanine) and 5 μg/ml of cytochalasin B were added to the solution. Thus, obtained mixture of the solution was reacted by incubating for 15 minutes. After the incubation, the mixture of the solution was subjected to centrifugation at 2,000 rpm for 10 minutes. The supernatant (0.2 ml) was admixed with 0.5 ml of 0.1M-acetic acid buffer solution (pH 4.5) in which 0.2 mM of phenolphthalein glucuronic acid was dissolved. Then the resulting mixture of the solutions was reacted at 37° C. for 5 hours by incubation. After the reaction, 1N-NaOH solution was added to the reaction mixture so as to make the pH thereof to pH 8-9, and the optical absorbance of both test group samples and control group samples were determined at 550 nm (OD550).
The 50% inhibitory concentration (IC50) values were obtained by calculating as the ratio of OD550 of the test group samples to that of the control group samples.
For “6-(indol-3-yl)methyl-2-isobutyl-5-methyl-1,2-dihydropyrazin-3-one 4-oxide [Compound A-82a]”, the “50% inhibitory concentration (IC50), releasing of lysosome” value was 20 µg/mL.
